Patent US5574173A, “Tricyclic derivatives, compositions and methods of use” (Schering Corporation, priority 1993, dated 1996)

Experiments:
[1] = system: LPS-Induced TNF-α Production From the Murine Cell Line WEHI-265; test: In vitro inhibition of LPS-induced TNF-α production from the murine cell line WEHI-265; assay type: cell-based; details: Mus musculus, WEHI-265 cells, LPS from E. coli 0111:B4, 20-24 h incubation
Experimental: This test procedure is a standard test used to determine anti-TNF-α activity and to evaluate the usefulness of said compounds for counteracting the biological effects of TNF-α.
1. In Vitro Study: Inhibition of LPS-Induced TNF-α
Production From the Murine Cell Line WEHI-265
1) Cells (obtained from cell cultures containing≤10^6 cells/ml) are suspended at 0.2×10^6 cells/ml in complete medium (RPMI1640, with 10% FCS, 10^-5 M 2-ME, 2 mM glutan-fine and 10 mM HEPES buffer) and plated in CoStar 24 well plates (1.0 ml/well).
2) Compounds are dissolved in the appropriate vehicle at 400 times the concentration to be tested, and 5 μl of compound is added to the wells.
3) LPS (from E. coli 0111:B4) is diluted to 6 μg/ml and 1.0 ml is added to wells.
4) Plates are incubated 20-24 hours in 37° CO2 incubator.
5) Supernatant fluids are collected and analyzed for TNF content as described in J. Immunol., 142:3884.

LPS-Induced Serum TNF = test: In vivo inhibition of LPS-induced serum TNF in mice; design: species or system mice (C57BI/6J); details: Mus musculus, 1.5 h; 25 mg/kg oral or i.p. one hour before LPS (50 μg i.p.); bled 90 min after LPS; ELISA; values may have a wide margin of error
Experimental: In addition to the in vitro test described above, the following in vivo test was also performed on several of the compounds of the present invention.
1. In Vivo Study: Inhibition of LPS-Induced Serum TNF
Mice (C57BI/6J males, 6-8 weeks of age) are dosed with the indicated compound (dissolved in CMC suspension vehicle; compounds are given orally or i.p. one hour before LPS challenge).
Mice are bled 90 min after LPS challenge.
4) Sera are analyzed for TNF content by ELISA as described in J. Immunol.

[2] = system: LPS/Galactosamine-Induced Lethality; test: In vivo inhibition of LPS/galactosamine-induced lethality in mice; design: species or system mice (C57BI/6J); details: 25 mg/kg oral or i.p. one hour before LPS (100 ng) and d-galactosamine (8 mg) i.p.; survival at 24 hours
Experimental: This test procedure is a standard test used to determine activity against septic shock.
3. In Vivo Study: Inhibition of LPS/Galactosamine-Induced Lethality.
1) Mice (C57BI/6J males, 6-8 weeks of age) are dosed with the indicated compound (dissolved in CMC suspension vehicle; compounds are given orally or i.p. one hour before challenge with LPS and d-galactosamine).
2) Mice are challenged i.p. with a mixture of LPS (from E. coli 0111:B4; 100 ng) and d-galactosamine (8 mg).
3) Survival is determined 24 hours after challenge. See procedure published in J. Exp. Med. 165:657 (1987)

| Compound | inhibition at 10 µM [1] [%] | inhibition in vivo at 25 mg/kg (LPS-Induced Serum TNF) [%] | # DEAD/TOTAL AT 25 MG/KG [2] |
| --- | --- | --- | --- |
| CCOC(CNC)C1c2ccccc2CCc2ccccc21 (stereo not shown) [IG] | 35 | 51 | 7/9 |
| CNCCC1c2ccccc2CCc2ccccc21 [Compound K1] | 15 | 71 | 1/10 |
| CCCC(CN(C)C(=O)OCC)C1c2ccccc2COc2ccccc21 (stereo not shown) [Compound K4] | 48 |  |  |
| CCOC(C(=O)N(C)C)C1c2ccccc2CCc2ccccc21 (stereo not shown) [Compound IE, 2-ethoxy-2-[10,11-dihydro-5H-dibenzo[a,d]cyclohepten-5-yl]-N,N-dimethyl-acetamide] | 49 | 37 | 10/10 |
| CCOC(CN(C)C)C1c2ccccc2CCc2ccccc21 (stereo not drawn) [Compound IB, β-ethoxy-10,11-dihydro-N, N-dimethyl-5 H-dibenzo[a,d]cycloheptene-5-ethanamine] | 35 | 25 | 8/10 |
| C=CCC(CN(C)C)C1c2ccccc2COc2ccccc21 (stereo not shown) [IH] | 23 | 30 |  |
| C=CCC(CNC)C1c2ccccc2COc2ccccc21 (stereo not shown) [Compound IA, N-methyl-2-[6,11-dihydro-dibenzo[b,e]oxepin-11-yl]-pent-4-en-1-amine] | 54 | 44 |  |
| C=CCC(CN(C)C(=O)OCC)C1c2ccccc2COc2ccccc21 (stereo not shown) [IK] | 31 |  |  |
| C=CC(CCN(C)C)C1c2ccccc2CCc2ccccc21 (stereo not shown) [Compound IC, 3-(10,11-dihydro-5H-dibenzo[a,d]cyclohepten-5-yl)-N,N-dimethyl-4-pentenamine] | 46 |  |  |
| C=CCC(CN(C)C(C)=O)C1c2ccccc2CCc2ccc(Cl)cc21 (stereo not shown) [IL] | 49 | 42 |  |
| CCCC(CN(C)C(C)=O)C1c2ccccc2COc2ccccc21 (stereo not shown) [Compound K5] | 46 |  | 10/10 |
| CCCC(CN(C)C)C1c2ccccc2CCc2ccc(Cl)cc21 (stereo not shown) [Compound K6] | 64 |  |  |
| CN(C)CC(O)C1c2ccccc2CCc2ccccc21 (stereo not shown) [IF] | 4 | 24 | 8/10 |
| C=CCC(CNC)C1c2ccccc2CCc2ccc(Cl)cc21 (stereo not shown) [IN] | 28 |  |  |
| CCCC(CN(C)C)C1c2ccccc2COc2ccccc21 (stereo not shown) [Compound K2] | 54 | 40 | 7/10 |
| C=CCC(CN(C)C)C1c2ccccc2CCc2ccc(Cl)cc21 (stereo not shown) [IM] | 50 |  |  |
| CCCC(CNC)C1c2ccccc2CCc2ccc(Cl)cc21 (stereo not shown) [Compound K7] | 39 | 58 |  |
| CCCC(CNC)C1c2ccccc2COc2ccccc21 (stereo not shown) [Compound K3, N-methyl-2-[6,11-dihydro-dibenzo[b,e]oxepin-11-yl]-pentanamine] | 73 | 27 |  |
| C=CCC(CN(C)C(C)=O)C1c2ccccc2COc2ccccc21 (stereo not shown) [IJ] | 34 |  |  |
